Patent publication US20140225048A1, “LIQUID COMPOSITION, AND COLOR-FILTER RESIST COMPOSITION, THERMAL-TRANSFER RECORDING SHEET AND INK WHICH MAKE USE OF THE LIQUID COMPOSITION” (CANON KABUSHIKI KAISHA, priority 2011, published 2014)

assay: Examination of solubility of compounds in toluene; details: in toluene at room temperature

Solubility | Compound
≦1% | Cn1c(=O)cc2c3c(c(Nc4ccccc4)ccc31)C(=O)c1ccccc1-2 [(1)]
≦1% | Cc1ccc(Nc2ccc3c4c(cc(=O)n3C)-c3ccccc3C(=O)c24)cc1 [(2)]
≦1% | Cc1cccc(Nc2ccc3c4c(cc(=O)n3C)-c3ccccc3C(=O)c24)c1 [(3)]
≦1% | Cc1ccc(Nc2ccc3c4c(cc(=O)n3-c3ccc(C)cc3)-c3ccccc3C(=O)c24)cc1 [(4)]
≦0.1% ^ | O=C1c2ccccc2-c2cc(=O)n(C3CCCCC3)c3ccc(NC4CCCCC4)c1c23 [(5)]
5% | CCCCC(CC)CNc1ccc2c3c(cc(=O)n2C)-c2ccccc2C(=O)c13 (stereo not drawn) [Compound (1)]
≧10%^ | CCCCC(CC)CNc1ccc2c3c(cc(=O)n2CC(CC)CCCC)-c2ccccc2C(=O)c13 (stereo not drawn) [Compound (5)]
≧10%^ | CCCCCCCCCCCCNc1ccc2c3c(cc(=O)n2CCCC)-c2ccccc2C(=O)c13 [Compound (8)]
≧10%^ | CCCCn1c(=O)cc2c3c(c(NCCC4=CCCCC4)ccc31)C(=O)c1ccccc1-2 [Compound (9)]
